As usually defined, the IC50 is the concentration that gives 50% inhibition. As a reminder, the melting point is the temperature, or range, at which the solid turns liquid.

The test system of series [1] is EV 71 strains SZ-98, JS-52-3, H, BrCr. Description: Anti EV 71 activity assay in Vero cells, summary over the four strains tested. The class given is cell-based, Enterovirus 71. Particulars: for selectivity index (SI) values (range over strains): TC50/IC50, range over the EV 71 strains tested. How it is done:
(§1) The EV 71 was divided into three genotypes A, B and C based on nucleotide sequence comparisons, and genotypes B and C were subdivided into B1-B5 and C1-C5 [6, 10]. Genotype C is the most common genotype found in mainland China, especially the C4 subgenotype. Consequently, the intermediate compounds 1a, 1c and 1e, and the final products 2a–c, 3a–g, and 5a–f were evaluated for their anti-EV 71 activity in Vero cells against genotypes C4 (strains SZ-98 and JS-52-3), C2 (strain H) and A (strain BrCr). […] The IC50 values were calculated by the Reed and Muench method, and the cytotoxicity was monitored by the CPE method.
(§2) Vero cells were purchased from the American Type Culture Collection and cultured in Minimum Essential Medium (MEM) supplemented with 10% Fetal Bovine Serum (FBS) and antibiotics (100 U/mL penicillin G, 100 μg/mL streptomycin). Enterovirus 71 (EV 71) strain SZ-98 was kindly provided by Dr. Qi Jin, Institute of Pathogen Biology, Chinese Academy of Medical Science and Peking Union Medical School. Enterovirus 71 (EV 71) strain BrCr (VR-1775) was purchased from the American Type Culture Collection. Enterovirus 71 (EV 71) strain JS-52-3 was kindly provided by Dr. Xiang-zhong Ye, Beijing Wantai Biological Pharmacy Enterprise Co., Ltd. All Enterovirus 71 strains were propagated in Vero cells.
(§3) All compounds were dissolved in DMSO at 20 mg/mL as a stock solution and further diluted in culture medium prior to use. The initial concentration in all cytotoxicity assay was 200 µg/mL, and inhibition assay for anti-EV71 experiments was from maximum non-toxic concentration, and proceeded serially 3-fold dilution with culture medium. All cytotoxicity and activity assay for each compound was repeated for three times, and the data was indicated as average ± SD.
(§4) Confluent Vero cells grown in 96-well microplates were infected respectively with 100 median tissue culture infective dose (TCID50) EV 71. After 1 h adsorption at 37 °C, the monolayers were washed by PBS and incubated at 37 °C in the maintenance medium with or without different concentrations of test compounds.

The test system of series [2] is EV 71 strain SZ-98 (genotype C4). Description: Anti EV 71 activity assay (CPE, Reed & Muench) in Vero cells, strain SZ-98. The class given is cell-based, Enterovirus 71. Particulars: for IC50: EV 71 strain SZ-98, Vero cells, 100 TCID50, CPE, average ± SD, n=3; for SI SZ-98: selectivity index TC50/IC50, strain SZ-98, "-" stands for no antiviral selectivity. How it is done:
as §1, §2, §3, §4

Series [3] has as its system EV 71 strain BrCr (genotype A). Description: Anti EV 71 activity assay (CPE, Reed & Muench) in Vero cells, strain BrCr. The format is cell-based, Enterovirus 71. Conditions: for IC50: EV 71 strain BrCr, Vero cells, 100 TCID50, CPE, average ± SD, n=3; for SI BrCr: selectivity index TC50/IC50, strain BrCr, "-" stands for no antiviral selectivity. The method, then:
as §1, §2, §3, §4

Series [4] deals with EV 71 strain JS-52-3 (genotype C4). Briefly: Anti EV 71 activity assay (CPE, Reed & Muench) in Vero cells, strain JS-52-3. The format is cell-based, Enterovirus 71. Conditions: for IC50: EV 71 strain JS-52-3, Vero cells, 100 TCID50, CPE, average ± SD, n=3; for SI JS-52-3: selectivity index TC50/IC50, strain JS-52-3, "-" stands for no antiviral selectivity. How it is done:
as §1, §2, §3, §4

The subject of series [5] is EV 71 strain H (genotype C2). Description: Anti EV 71 activity assay (CPE, Reed & Muench) in Vero cells, strain H. The class given is cell-based, Enterovirus 71. Particulars: for IC50: EV 71 strain H (C2 genotype), Vero cells, 100 TCID50, CPE, average ± SD, n=3; for SI H: selectivity index TC50/IC50, strain H, "-" stands for no antiviral selectivity. The method, then:
as §1, §2, §3, §4

Another series has as its system Vero cells. Briefly: Cytotoxicity determination in Vero cells monitored by cytopathic effect (CPE). The format is cell-based. Conditions: 48 h, Reed & Muench, concentration that inhibits 50% cellular growth, average ± SD, n=3. The method, then: Vero cells were purchased from the American Type Culture Collection and cultured in Minimum Essential Medium (MEM) supplemented with 10% Fetal Bovine Serum (FBS) and antibiotics (100 U/mL penicillin G, 100 μg/mL streptomycin). Enterovirus 71 (EV 71) strain SZ-98 was kindly provided by Dr. Qi Jin, Institute of Pathogen Biology, Chinese Academy of Medical Science and Peking Union Medical School. […] Enterovirus 71 (EV 71) strain JS-52-3 was kindly provided by Dr. Xiang-zhong Ye, Beijing Wantai Biological Pharmacy Enterprise Co., Ltd. All Enterovirus 71 strains were propagated in Vero cells.
as §3
The cytotoxicity of compounds in the presence of Vero cells was monitored by cytopathic effect (CPE). Vero cells (2.5 × 10^4/well) were plated into a 96-well plate. A total of 24 h later, the monolayer cells were incubated in the presence of various concentrations of test compounds. […] The median toxic concentration (TC50) was calculated by Reed & Muench analyses.
In general terms: Protection from cytopathic effect is a common read-out in antiviral testing.

The test system of a further series is 16 enteroviruses. Conditions: cited from earlier work.

`COc1ccc(C(=O)NC2CCCCC2)cc1NC(=O)C(C)F` (centres unmarked) [Compound 2b, N-Cyclohexyl-3-(2-fluoropropanamido)-4-methoxybenzamide] showed a melting point of 192 to 194 °C. Besides, the “anti-EV 71 activity (in words)” value in series [1] (structure-activity discussion) is on record as “no anti-EV 71 activity was observed”. Besides, in series [2] (Enterovirus A, Vero), the IC50 was greater than 620 µM. The same compound showed an IC50 in series [3] (Enterovirus A, Vero) of 360 ± 26 µM. For the same compound, the “SI BrCr” value in series [3] is greater than 1.7. Moreover, the midpoint of inhibition in series [4] (Enterovirus A, Vero), the IC50, lay at 210 µM. Moreover, the “SI JS-52-3” value in series [4] is greater than 3.0. Besides, in series [5] (Enterovirus A, Vero), it took 430 ± 36 µM to reach half-maximal inhibition (IC50). Besides, in series [5], the “SI H” value is recorded as greater than 1.4. Further, the TC50 in the series on Vero cells was greater than 620 µM.

With `CCC(=O)Nc1cc(C(=O)Nc2ccc(Br)cc2)ccc1OC` [Compound 5c], in series [1], the “selectivity index (SI) values (range over strains)” value (shortened to “selectivity index (SI) values”) was 16–63. For the same compound, the IC50 in series [2] was 11 ± 0.8 µM; in series [2] (Enterovirus A, Vero), roughly 15 µM; in series [3] (Enterovirus A, Vero), 34 µM; in series [4], 20 ± 3.1 µM; in series [4] (Enterovirus A, Vero), roughly 15 µM; in series [5], 8.4 ± 1.2 µM. The half-inhibitory concentration (IC50) in series [5] (Enterovirus A, Vero) is roughly 15 µM. In series [2], the “SI SZ-98” value is listed as 47. Moreover, in series [3], the “SI BrCr” value is recorded as 16. The “SI JS-52-3” value in series [4] stood at 27. Besides, the “SI H” value in series [5] was found to be 63. For the same compound, in the series with Vero cells, the TC50 was 530 ± 0.0 µM.

With `CCOC(=O)c1ccc(OCCC2CCN(c3ccc(C)nn3)CC2)cc1` [Pirodavir, pirodavir, reference compound], the half-inhibitory concentration (IC50) in series [2] (Enterovirus A, Vero) was 1.2 ± 0.2 µM; in series [3] (Enterovirus A, Vero), 1 ± 0.2 µM; in series [4] (Enterovirus A, Vero), 1 ± 0.2 µM; in series [5] (Enterovirus A, Vero), 0.6 ± 0.1 µM. Moreover, in the series with 16 enteroviruses, the “concentration effective against 80% of 16 enteroviruses tested” value is 1.3 µg/mL. In the series on Vero cells, this compound yielded a TC50 of 31 ± 2.2 µM.

`CCCNc1cc(C(=O)Nc2cc(OC)c(OC)c(OC)c2)ccc1OC` [Compound 3g, 4-Methoxy-3-(propylamino)-N-(3,4,5-trimethoxyphenyl)benzamide] displayed a melting point of 164 to 167 °C. Besides, the “selectivity index (SI) values” value in series [1] is given as 16–35. This compound also returned an IC50 in series [2] (Enterovirus A, Vero) greater than 59 µM. Besides, in series [3], the IC50 turned out to be 20 ± 3.1 µM and the “SI BrCr” value is listed as 27. Also, the IC50 in series [3] (Enterovirus A, Vero) is roughly 15 µM. The same compound showed an IC50 in series [4] (Enterovirus A, Vero) of 34 ± 2.5 µM. Further, the “SI JS-52-3” value in series [4] was determined as 16. The IC50 in series [5] (Enterovirus A, Vero) is roughly 15 µM. For the same compound, in series [5], the “SI H” value is listed as 35. The compound further returned a TC50 in the series on Vero cells of 530 µM.

`COc1ccc(C(=O)Nc2ccc(Br)cc2)cc1N` [Compound 1e, 3-Amino-N-(4-bromophenyl)-4-methoxybenzamide] displayed a melting point of 190 to 192 °C. The “selectivity index (SI) values” value in series [1] is on record as 51–110. Moreover, the IC50 in series [2] (Enterovirus A, Vero) was 12 ± 1.1 µM. Also, the “SI SZ-98” value in series [2] is given as 51. Besides, the IC50 in series [3] (Enterovirus A, Vero) was found to be 9.1 ± 1.4 µM. Also, the “SI BrCr” value in series [3] was found to be 68. For the same compound, the IC50 in series [4] (Enterovirus A, Vero) is 9.8 ± 0.4 µM. In addition, the “SI JS-52-3” value in series [4] is reported as 64. This compound registered an IC50 in series [5] (Enterovirus A, Vero) of 5.7 ± 0.8 µM. Further, in series [5], the “SI H” value came out at 110. The compound further registered a TC50 with Vero cells of 620 ± 0.0 µM.

Compound `COc1ccc(C(=O)Nc2ccc(Cl)cc2)cc1N` [Compound 1c, 3-Amino-N-(4-chlorophenyl)-4-methoxybenzamide] returned a melting point of 152 to 154 °C. For the same compound, the “selectivity index (SI) values” value in series [1] is on record as 10–36. Moreover, the IC50 in series [2] (Enterovirus A, Vero) was roughly 15 µM. In addition, the “SI SZ-98” value in series [2] came to 36. Also, in series [3] (Enterovirus A, Vero), the IC50 was determined as 56 ± 4.2 µM. Besides, the “SI BrCr” value in series [3] amounted to 10. Further, inhibition in series [4] (Enterovirus A, Vero) was half-maximal at 46 ± 5.7 µM (IC50). The “SI JS-52-3” value in series [4] is 12. The IC50 in series [5] (Enterovirus A, Vero) was found to be 34 ± 3.6 µM. For the same compound, in series [5], the “SI H” value stood at 16. In the series with Vero cells, this compound had a TC50 of 520 ± 29 µM.

These data come from publication PMC6270001, “Synthesis and Antiviral Activity of N-Phenylbenzamide Derivatives, a Novel Class of Enterovirus 71 Inhibitors” (Molecules, 2013).
